Literature values as cited in PubChem BioAssay AID1259409 (Chemical Carcinogenesis Research Information System (CCRIS), 2018).

Test system: rodent chemically induced tumor inhibition, incidence and multiplicity
Assay: CCRIS tumor inhibitor studies
Details: Carcinogen: N-NITROSOBIS(2-OXYPROPYL)AMINE, 60599-38-4, Route [Inhibitor]: ORAL, Species: HAMSTER, Promoter: NONE USED

Compound: CCNC(=O)/C=C(C)/C=C/C=C(C)/C=C/C1=C(C)CCCC1(C)C
- tumour outcome (control, treated, inhibition, significance) (Dose [Inhibitor]: 0.05, 0.1 OR 0.2 MILLIMOLAR/KG DIET FOR 32 WK STARTING 1 WK AFTER THE CARCINOGEN DOSE (STUDY DURATION: 33 WK), Strain/Sex: SYRIAN/FEMALE, Target Tissue: Type of Lesion: GALL BLADDER: ADENOMA, Dose [Carcinogen]: 40 MG/KG ONCE): 6/10 (60%), 2/23 (9%), 85%, p<0.025
- tumour outcome (control, treated, inhibition, significance) (Dose [Inhibitor]: 0.05, 0.1 OR 0.2 MILLIMOLAR/KG DIET FOR 32 WK STARTING 1 WK AFTER THE CARCINOGEN DOSE (STUDY DURATION: 33 WK), Strain/Sex: SYRIAN/FEMALE, Target Tissue: Type of Lesion: LIVER: ADENOMA, Dose [Carcinogen]: 40 MG/KG ONCE): 6/10 (60%), 13/23 (59%), 2%, not significant
- tumour outcome (control, treated, inhibition, significance) (Dose [Inhibitor]: 0.05, 0.1 OR 0.2 MILLIMOLAR/KG DIET FOR 32 WK STARTING 1 WK AFTER THE CARCINOGEN DOSE (STUDY DURATION: 33 WK), Strain/Sex: SYRIAN/FEMALE, Target Tissue: Type of Lesion: LUNG: ADENOMA, Dose [Carcinogen]: 40 MG/KG ONCE): 3/10 (30%), 9/23 (41%), -37%, not significant
- tumour outcome (control, treated, inhibition, significance) (Dose [Inhibitor]: 0.05, 0.1 OR 0.2 MILLIMOLAR/KG DIET FOR 32 WK STARTING 1 WK AFTER THE CARCINOGEN DOSE (STUDY DURATION: 33 WK), Strain/Sex: SYRIAN/FEMALE, Target Tissue: Type of Lesion: PANCREAS: ADENOMA, Dose [Carcinogen]: 40 MG/KG ONCE): 10/10 (100%), 22/23 (96%), 4%, not significant
- tumour outcome (control, treated, inhibition, significance) (Dose [Inhibitor]: 0.05, 0.1 OR 0.2 MILLIMOLAR/KG DIET FOR 32 WK STARTING 1 WK AFTER THE CARCINOGEN DOSE (STUDY DURATION: 33 WK), Strain/Sex: SYRIAN/FEMALE, Target Tissue: Type of Lesion: PANCREAS: CARCINOMA, Dose [Carcinogen]: 40 MG/KG ONCE): 4/10 (40%), 10/23 (43%), -8%, not significant
- tumour outcome (control, treated, inhibition, significance) (Dose [Inhibitor]: 0.05, 0.1 OR 0.2 MILLIMOLAR/KG DIET FOR 32 WK STARTING 1 WK AFTER THE CARCINOGEN DOSE (STUDY DURATION: 33 WK), Strain/Sex: SYRIAN/MALE, Target Tissue: Type of Lesion: COMMON DUCT: ADENOMA, Dose [Carcinogen]: 40 MG/KG ONCE): 4/12 (33%), 14/26 (54%), -64%, not significant
- tumour outcome (control, treated, inhibition, significance) (Dose [Inhibitor]: 0.05, 0.1 OR 0.2 MILLIMOLAR/KG DIET FOR 32 WK STARTING 1 WK AFTER THE CARCINOGEN DOSE (STUDY DURATION: 33 WK), Strain/Sex: SYRIAN/MALE, Target Tissue: Type of Lesion: GALL BLADDER: ADENOMA, Dose [Carcinogen]: 40 MG/KG ONCE): 3/12 (25%), 10/26 (39%), -56%, not significant
- tumour outcome (control, treated, inhibition, significance) (Dose [Inhibitor]: 0.05, 0.1 OR 0.2 MILLIMOLAR/KG DIET FOR 32 WK STARTING 1 WK AFTER THE CARCINOGEN DOSE (STUDY DURATION: 33 WK), Strain/Sex: SYRIAN/MALE, Target Tissue: Type of Lesion: LIVER: ADENOMA, Dose [Carcinogen]: 40 MG/KG ONCE): 6/12 (50%), 12/26 (46%), 8%, not significant
- tumour outcome (control, treated, inhibition, significance) (Dose [Inhibitor]: 0.05, 0.1 OR 0.2 MILLIMOLAR/KG DIET FOR 32 WK STARTING 1 WK AFTER THE CARCINOGEN DOSE (STUDY DURATION: 33 WK), Strain/Sex: SYRIAN/MALE, Target Tissue: Type of Lesion: LUNG: ADENOMA, Dose [Carcinogen]: 40 MG/KG ONCE): 1/12 (8%), 2/26 (8%), 0%, not significant
- tumour outcome (control, treated, inhibition, significance) (Dose [Inhibitor]: 0.05, 0.1 OR 0.2 MILLIMOLAR/KG DIET FOR 32 WK STARTING 1 WK AFTER THE CARCINOGENDOSE (STUDY DURATION: 33 WK), Strain/Sex: SYRIAN/MALE, Target Tissue: Type of Lesion: PANCREAS: ADENOMA, Dose [Carcinogen]: 40 MG/KG ONCE): 12/12 (100%), 26/26 (100%), 0%, not significant
- tumour outcome (control, treated, inhibition, significance) (Dose [Inhibitor]: 0.05, 0.1 OR 0.2 MILLIMOLAR/KG DIET FOR 32 WK STARTING 1 WK AFTER THE CARCINOGENDOSE (STUDY DURATION: 33 WK), Strain/Sex: SYRIAN/MALE, Target Tissue: Type of Lesion: PANCREAS: CARCINOMA, Dose [Carcinogen]: 40 MG/KG ONCE): 6/12 (50%), 13/26 (50%), 0%, not significant
- tumour outcome (control, treated, inhibition, significance) (Dose [Inhibitor]: 0.05, 0.1 OR 0.2 MM/KG DIET FOR 32 WK STARTING 1 WK AFTER THE CARCINOGEN DOSE (STUDY DURATION: 33 WK), Strain/Sex: SYRIAN/FEMALE, Target Tissue: Type of Lesion: PANCREAS: ADENOCARCINOMA, Dose [Carcinogen]: 40 MG/KG ONCE): 2/10 (20%), 2/23 (9%), 55%, not significant
- tumour outcome (control, treated, inhibition, significance) (Dose [Inhibitor]: 0.05, 0.1 OR 0.2 MM/KG DIET FOR 32 WK STARTING 1 WK AFTER THE CARCINOGEN DOSE (STUDY DURATION: 33 WK), Strain/Sex: SYRIAN/FEMALE, Target Tissue: Type of Lesion: PANCREAS: CARCINOMA IN SITU, Dose [Carcinogen]: 40 MG/KG, ONCE, ONE WK PRIOR TO START OF AGENT TREATMENT): 1/10 (10%), 7/23 (30%), -200%, not significant
- tumour outcome (control, treated, inhibition, significance) (Dose [Inhibitor]: 0.05, 0.1 OR 0.2 MM/KG DIET FOR 32 WK STARTING 1 WK AFTER THE CARCINOGEN DOSE (STUDY DURATION: 33 WK), Strain/Sex: SYRIAN/FEMALE, Target Tissue: Type of Lesion: PANCREAS: INTRADUCTAL CARCINOMA, Dose [Carcinogen]: 40 MG/KG, ONCE, ONE WK PRIOR TO START OF AGENT TREATMENT): 2/10 (20%), 3/23 (9%), 55%, not significant
- tumour outcome (control, treated, inhibition, significance) (Dose [Inhibitor]: 0.05, 0.1 OR 0.2 MM/KG DIET FOR 32 WK STARTING 1 WK AFTER THE CARCINOGEN DOSE (STUDY DURATION: 33 WK), Strain/Sex: SYRIAN/MALE, Target Tissue: Type of Lesion: PANCREAS: ADENOCARCINOMA, Dose [Carcinogen]: 40 MG/KG, ONCE, ONE WK PRIOR TO START OF AGENT TREATMENT): 1/12 (8%), 2/26 (8%), 0%, not significant
- tumour outcome (control, treated, inhibition, significance) (Dose [Inhibitor]: 0.05, 0.1 OR 0.2 MM/KG DIET FOR 32 WK STARTING 1 WK AFTER THE CARCINOGEN DOSE (STUDY DURATION: 33 WK), Strain/Sex: SYRIAN/MALE, Target Tissue: Type of Lesion: PANCREAS: CARCINOMA IN SITU, Dose [Carcinogen]: 40 MG/KG, ONCE, ONE WK PRIOR TO START OF AGENT TREATMENT): 3/12 (25%), 8/26 (31%), -24%, not significant
- tumour outcome (control, treated, inhibition, significance) (Dose [Inhibitor]: 0.05, 0.1 OR 0.2 MM/KG DIET FOR 32 WK STARTING 1 WK AFTER THE CARCINOGEN DOSE (STUDY DURATION: 33 WK), Strain/Sex: SYRIAN/MALE, Target Tissue: Type of Lesion: PANCREAS: INTRADUCTAL CARCINOMA, Dose [Carcinogen]: 40 MG/KG, ONCE, ONE WK PRIOR TO START OF AGENT TREATMENT): 2/12 (17%), 3/26 (12%), 29%, not significant
- tumour outcome (control, treated, inhibition, significance) (Dose [Inhibitor]: 0.05, 0.1 OR 0.2 MM/KG DIET FOR 32 WK STARTING 1 WK AFTER THE CARCINOGEN DOSE (STUDY DURATION: 33 WK), Strain/Sex: SYRIAN/MALE, Target Tissue: Type of Lesion: PANCREAS: MICROCARCINOMA, Dose [Carcinogen]: 40 MG/KG, ONCE, ONE WK PRIOR TO START OF AGENT TREATMENT): 3/12 (25%), 4/26 (15%), 40%, not significant
